Experimental data as given in ChEMBL document CHEMBL1938230, “6-Position optimization of tricyclic 4-quinolone-based inhibitors of glycogen synthase kinase-3β: discovery of nitrile derivatives with picomolar potency” (Bioorg Med Chem Lett, 2012).

What was measured:
Format in all cases: cell-free
[1] = target: T1, Serine/threonine-protein kinase 3 (Homo sapiens) (UniProt Q13188); assay: Inhibition of human MST2 in HL-60 cells lysate assessed as reduction of labeling of acyl-phosphate ATP probe at 100 nM
T1 sequence (whole entry): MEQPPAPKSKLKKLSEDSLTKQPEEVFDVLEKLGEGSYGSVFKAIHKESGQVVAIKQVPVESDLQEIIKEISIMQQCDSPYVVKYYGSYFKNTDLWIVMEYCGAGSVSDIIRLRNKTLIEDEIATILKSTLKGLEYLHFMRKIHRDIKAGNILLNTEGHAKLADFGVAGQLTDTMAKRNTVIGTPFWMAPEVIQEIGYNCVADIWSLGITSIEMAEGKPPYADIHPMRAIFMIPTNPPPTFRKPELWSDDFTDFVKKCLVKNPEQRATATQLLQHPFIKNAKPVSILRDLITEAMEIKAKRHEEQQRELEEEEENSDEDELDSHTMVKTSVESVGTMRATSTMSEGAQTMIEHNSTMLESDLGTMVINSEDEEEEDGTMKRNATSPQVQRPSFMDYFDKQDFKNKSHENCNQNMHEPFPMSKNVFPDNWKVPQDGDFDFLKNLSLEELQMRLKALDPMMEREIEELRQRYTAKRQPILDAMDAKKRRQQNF

[2] = target: Serine/threonine-protein kinase PAK 2 (Homo sapiens) (UniProt Q13177); assay: Inhibition of human PAK2 in HL-60 cells lysate assessed as reduction of labeling of acyl-phosphate ATP probe at 100 nM
[3] = target: T2, Mitogen-activated protein kinase kinase kinase 3 (Homo sapiens) (UniProt Q99759); assay: Inhibition of human MAP3K3 in HL-60 cells lysate assessed as reduction of labeling of acyl-phosphate ATP probe at 100 nM
T2 sequence (whole entry): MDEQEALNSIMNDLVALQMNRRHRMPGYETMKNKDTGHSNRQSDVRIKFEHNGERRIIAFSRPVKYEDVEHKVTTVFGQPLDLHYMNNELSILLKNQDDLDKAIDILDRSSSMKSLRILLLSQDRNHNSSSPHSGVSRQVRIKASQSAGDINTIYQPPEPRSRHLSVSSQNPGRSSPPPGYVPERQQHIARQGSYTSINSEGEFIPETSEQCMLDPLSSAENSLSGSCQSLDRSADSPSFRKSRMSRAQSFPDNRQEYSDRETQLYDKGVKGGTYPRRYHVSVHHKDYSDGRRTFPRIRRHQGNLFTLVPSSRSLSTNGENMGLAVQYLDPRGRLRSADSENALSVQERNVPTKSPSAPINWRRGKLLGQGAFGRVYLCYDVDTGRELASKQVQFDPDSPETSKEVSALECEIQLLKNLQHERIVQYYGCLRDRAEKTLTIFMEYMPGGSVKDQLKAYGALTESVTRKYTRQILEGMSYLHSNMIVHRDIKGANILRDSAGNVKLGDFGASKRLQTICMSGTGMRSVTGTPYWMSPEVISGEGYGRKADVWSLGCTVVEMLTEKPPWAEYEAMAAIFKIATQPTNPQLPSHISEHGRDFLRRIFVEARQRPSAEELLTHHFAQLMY

[4] = target: T3, Serine/threonine-protein kinase TAO2 (Homo sapiens) (UniProt Q9UL54); assay: Inhibition of human TAO2 in HL-60 cells lysate assessed as reduction of labeling of acyl-phosphate ATP probe at 100 nM
T3 sequence (whole entry): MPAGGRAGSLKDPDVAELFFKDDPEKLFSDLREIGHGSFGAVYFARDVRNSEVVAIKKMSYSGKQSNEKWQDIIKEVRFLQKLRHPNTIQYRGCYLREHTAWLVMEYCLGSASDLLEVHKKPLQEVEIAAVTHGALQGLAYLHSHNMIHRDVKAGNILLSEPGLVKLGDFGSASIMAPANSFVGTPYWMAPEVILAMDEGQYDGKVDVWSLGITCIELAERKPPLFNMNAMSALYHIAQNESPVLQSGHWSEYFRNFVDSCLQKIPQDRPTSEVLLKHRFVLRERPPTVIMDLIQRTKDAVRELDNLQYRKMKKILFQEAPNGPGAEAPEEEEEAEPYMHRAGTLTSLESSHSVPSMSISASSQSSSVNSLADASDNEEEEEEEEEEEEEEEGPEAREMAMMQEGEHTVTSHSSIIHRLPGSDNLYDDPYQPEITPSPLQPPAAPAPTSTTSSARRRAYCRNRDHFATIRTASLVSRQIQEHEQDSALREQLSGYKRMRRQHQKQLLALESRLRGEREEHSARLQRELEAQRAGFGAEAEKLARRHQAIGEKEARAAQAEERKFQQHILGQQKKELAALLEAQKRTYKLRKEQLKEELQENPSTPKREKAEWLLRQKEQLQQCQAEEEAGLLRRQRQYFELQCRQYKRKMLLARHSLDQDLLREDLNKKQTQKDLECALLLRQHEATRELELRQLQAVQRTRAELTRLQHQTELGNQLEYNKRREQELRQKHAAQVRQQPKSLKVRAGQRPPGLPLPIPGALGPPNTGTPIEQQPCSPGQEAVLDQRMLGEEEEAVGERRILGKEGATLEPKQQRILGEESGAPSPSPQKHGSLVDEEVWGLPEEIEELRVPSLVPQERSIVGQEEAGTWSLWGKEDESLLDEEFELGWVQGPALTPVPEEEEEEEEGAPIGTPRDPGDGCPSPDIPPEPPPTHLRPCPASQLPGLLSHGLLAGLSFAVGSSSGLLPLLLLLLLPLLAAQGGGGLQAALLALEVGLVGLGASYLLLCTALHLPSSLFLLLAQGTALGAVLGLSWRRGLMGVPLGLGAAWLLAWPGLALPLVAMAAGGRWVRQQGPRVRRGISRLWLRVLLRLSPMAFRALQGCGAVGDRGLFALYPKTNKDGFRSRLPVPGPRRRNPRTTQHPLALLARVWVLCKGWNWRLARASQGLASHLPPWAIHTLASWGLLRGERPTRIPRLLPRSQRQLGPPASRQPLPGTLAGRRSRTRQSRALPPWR

[5] = target: Tyrosine-protein kinase BTK (Homo sapiens) (UniProt Q06187); assay: Inhibition of human BTK in HL-60 cells lysate assessed as reduction of labeling of acyl-phosphate ATP probe at 100 nM
[6] = target: Cyclin-dependent kinase 17 (Homo sapiens) (UniProt Q00537); assay: Inhibition of human PCTAIRE2 in HL-60 cells lysate assessed as reduction of labeling of acyl-phosphate ATP probe at 100 nM

Measured: inhibition

Chain of Tyrosine-protein kinase BTK (Homo sapiens) (Q06187 whole entry): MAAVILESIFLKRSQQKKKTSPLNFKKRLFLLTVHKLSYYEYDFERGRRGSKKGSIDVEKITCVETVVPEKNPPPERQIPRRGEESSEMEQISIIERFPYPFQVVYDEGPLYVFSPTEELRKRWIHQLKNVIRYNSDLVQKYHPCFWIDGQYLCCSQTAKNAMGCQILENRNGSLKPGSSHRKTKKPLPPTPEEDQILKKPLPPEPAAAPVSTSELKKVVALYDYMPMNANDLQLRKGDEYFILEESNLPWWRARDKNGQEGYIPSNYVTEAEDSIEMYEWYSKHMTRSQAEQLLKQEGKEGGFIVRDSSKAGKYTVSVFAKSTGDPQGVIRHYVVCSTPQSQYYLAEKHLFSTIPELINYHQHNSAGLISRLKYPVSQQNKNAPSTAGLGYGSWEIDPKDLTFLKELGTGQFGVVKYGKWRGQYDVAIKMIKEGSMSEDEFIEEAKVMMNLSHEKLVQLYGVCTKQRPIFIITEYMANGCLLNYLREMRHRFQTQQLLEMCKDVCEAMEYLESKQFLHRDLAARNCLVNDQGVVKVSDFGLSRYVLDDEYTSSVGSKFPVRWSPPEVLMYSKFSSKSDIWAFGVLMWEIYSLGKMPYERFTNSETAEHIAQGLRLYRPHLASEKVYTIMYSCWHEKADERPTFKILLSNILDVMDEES
Chain of Serine/threonine-protein kinase PAK 2 (Homo sapiens) (Q13177 whole entry): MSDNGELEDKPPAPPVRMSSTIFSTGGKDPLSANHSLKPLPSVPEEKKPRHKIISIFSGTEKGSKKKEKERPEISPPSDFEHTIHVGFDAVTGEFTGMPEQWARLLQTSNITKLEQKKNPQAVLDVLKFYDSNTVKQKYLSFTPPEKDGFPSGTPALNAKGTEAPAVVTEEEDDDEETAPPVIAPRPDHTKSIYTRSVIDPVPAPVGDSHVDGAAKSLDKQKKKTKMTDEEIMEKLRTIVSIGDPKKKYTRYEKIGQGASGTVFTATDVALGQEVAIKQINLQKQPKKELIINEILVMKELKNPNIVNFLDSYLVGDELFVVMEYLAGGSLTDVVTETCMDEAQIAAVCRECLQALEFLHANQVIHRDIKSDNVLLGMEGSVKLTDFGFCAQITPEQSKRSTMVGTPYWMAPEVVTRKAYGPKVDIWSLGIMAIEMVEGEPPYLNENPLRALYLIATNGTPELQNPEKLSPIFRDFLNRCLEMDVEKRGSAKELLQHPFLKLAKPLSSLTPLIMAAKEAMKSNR
Chain of Cyclin-dependent kinase 17 (Homo sapiens) (Q00537 whole entry, looked up): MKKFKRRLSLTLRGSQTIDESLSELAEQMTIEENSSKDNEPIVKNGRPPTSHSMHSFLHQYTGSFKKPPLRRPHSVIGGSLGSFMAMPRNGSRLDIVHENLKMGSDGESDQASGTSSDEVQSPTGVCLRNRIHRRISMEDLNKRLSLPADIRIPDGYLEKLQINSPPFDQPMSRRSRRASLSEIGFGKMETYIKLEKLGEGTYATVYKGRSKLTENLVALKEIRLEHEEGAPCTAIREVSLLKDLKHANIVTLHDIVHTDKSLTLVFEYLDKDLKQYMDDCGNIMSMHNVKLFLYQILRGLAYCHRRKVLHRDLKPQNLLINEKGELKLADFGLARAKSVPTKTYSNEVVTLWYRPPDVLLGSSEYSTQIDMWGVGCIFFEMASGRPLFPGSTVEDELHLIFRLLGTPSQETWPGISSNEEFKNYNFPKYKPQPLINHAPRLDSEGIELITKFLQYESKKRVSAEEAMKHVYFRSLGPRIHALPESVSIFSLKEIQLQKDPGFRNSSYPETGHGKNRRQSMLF

C[C@H]1COc2c(NCCCn3cccn3)c(F)c(N)c3c(=O)c(C(=O)O)cn1c23
< 35%: [1] | [2] | [3] | [4] | [5] | [6]

C[C@H]1COc2c(NCCCc3ccccn3)c(F)c(N)c3c(=O)c(C#N)cn1c23
< 35%: [1] | [2] | [3] | [4] | [5] | [6]

C[C@H]1COc2c(NCCCn3cccn3)c(F)c(N)c3c(=O)c(C#N)cn1c23
< 35%: [1] | [2] | [3] | [4] | [5] | [6]

C[C@H]1COc2c(NCCCc3ccccn3)c(F)c(N)c3c(=O)c(C(=O)O)cn1c23
< 35%: [1] | [2] | [3] | [4] | [5] | [6]
